Like-named read-outs stand apart in the source and are kept apart here.
Assays:
[1] = Standard Cytotoxicity Assay for other cancer cell types (TC50, CellTiter-Glo); assay type: cell-based; details: for CC50 at 3 day: read-out: Cmpd A 3 day TC50; for CC50 at 7 day: read-out: Cmpd A 7 day TC50
Procedure: (§1) Approximately 24 hours later, test compound was added from serial dilutions prepared in DMSO from DMSO stock solutions.

cancer cell lines = experiment: as above; assay type: cell-based
Procedure: as §1

[2] = human, MALME-3 cells (normal skin), MALME-3 cells (skin (normal))
[3] = human, hFLS-RA (primary synoviocytes)
[4] = keratinocytes (primary skin cells), keratinocytes (primary skin)

O=C(NCc1cccnc1)Nc1ccc(COc2ccccc2-c2ccccc2)cc1 [Exemplary Compound A, 1-{4-[(biphenyl-2-yloxy)methyl]phenyl}-3-(pyridin-3-ylmethyl)urea]
CC50 at 3 day ([1]; SAEC (primary lung cells), SAEC (primary lung), value printed with (?)): 15000 nM | CC50 at 3 day [1, 2]: > 5000 nM | CC50 at 7 day [1, 2]: 0.9 nM | CC50 at 3 day [1, 3]: > 25000 nM | CC50 at 7 day [1, 3]: > 25000 nM | CC50 at 3 day [1, 4]: 2.9 nM | CC50 at 7 day [1, 4]: < 0.4 nM | CC50 at 3 day ([1]; mouse, NIH-3T3 cells (fibroblast), NIH-3T3 cells (mouse; fibroblast)): 0.45 nM | CC50 (cancer cell lines; 72 h, DB (lymphoma), 3 DAY, read-out: TC50 (the source's name)): 3.5 nM | CC50 (cancer cell lines; 72 h, DEL cells (lymphoma), 3 day, read-out: Cmpd A 3 day TC50): 41 nM | CC50 (cancer cell lines; 72 h, MC/CAR cells (myeloma), 3 day, read-out: Cmpd A 3 day TC50): 8.2 nM | CC50 (cancer cell lines; 72 h, NAMALWA cells (lymphoma), 3 day, read-out: Cmpd A 3 day TC50): 0.85 nM | CC50 (cancer cell lines; Calu-6 cells (lung (NSCLC)), 3 day, read-out: Cmpd A 3 day TC50): 12 nM | CC50 (cancer cell lines; DU145 cells (prostate), 3 day, read-out: Cmpd A 3 day TC50): 3.8 nM | CC50 (cancer cell lines; Daudi cells (lymphoma), 3 day, read-out: Cmpd A 3 day TC50): < 0.8 nM | CC50 (cancer cell lines; Homo sapiens, 22Rv1, 72 h, 22RV1 cells (prostate), 3 day, read-out: Cmpd A 3 day TC50): 8.4 nM | CC50 (cancer cell lines; Homo sapiens, A 172, 72 h, A172 (glioma), 3 DAY, read-out: TC50 (the source's name)): 1.1 nM | CC50 (cancer cell lines; Homo sapiens, A498, 72 h, A498 cells (kidney), 3 day, read-out: Cmpd A 3 day TC50): 43 nM | CC50 (cancer cell lines; Homo sapiens, A2058, 72 h, A2058 cells (melanoma (lymph node metastasis)), 3 day, read-out: Cmpd A 3 day TC50): 3.4 nM | CC50 (cancer cell lines; Homo sapiens, ACHN, 72 h, ACHN cells (kidney), 3 day, read-out: Cmpd A 3 day TC50): 3.7 nM | CC50 (cancer cell lines; Homo sapiens, BT-20, 72 h, BT-20 cells (breast), 3 day, read-out: Cmpd A 3 day TC50): 13 nM | CC50 (cancer cell lines; Homo sapiens, BT-474, 168 h, BT-474 cells (breast), 7 day, read-out: Cmpd A 7 day TC50): 1.1 nM | CC50 (cancer cell lines; Homo sapiens, BXPC-3, 72 h, BxPC-3 cells (pancreas), 3 day, read-out: Cmpd A 3 day TC50): 11 nM | CC50 (cancer cell lines; Homo sapiens, CAMA-1, 72 h, CAMA-1 cells (breast), 3 day, read-out: Cmpd A 3 day TC50): 4.6 nM | CC50 (cancer cell lines; Homo sapiens, CCRF-CEM, 72 h, CCRF-CEM cells (lymphocytic leukemia), 3 day, read-out: Cmpd A 3 day TC50): 2 nM | CC50 (cancer cell lines; Homo sapiens, COLO 205, 72 h, COLO205 (colon), 3 DAY, read-out: TC50 (the source's name)): 0.5 nM | CC50 (cancer cell lines; Homo sapiens, COLO 205, 168 h, COLO205 (colon), 7 DAY, read-out: TC50 (the source's name)): 0.3 nM | CC50 (cancer cell lines; Homo sapiens, COLO 205, 168 h, COLO205 cells (colon), 7 day, read-out: Cmpd A 7 day TC50): 0.3 nM | CC50 (cancer cell lines; Homo sapiens, Calu-6, 72 h, Calu-6 cells (lung (NSCLC)), 3 day, read-out: Cmpd A 3 day TC50): 11 nM | CC50 (cancer cell lines; Homo sapiens, DBTRG-05MG, 72 h, DBTRG-05MG cells (brain; glioblastoma), 3 day, read-out: Cmpd A 3 day TC50): 19 nM | CC50 (cancer cell lines; Homo sapiens, DLD-1, 72 h, DLD-1 cells (colon), 3 day, read-out: Cmpd A 3 day TC50): 1.7 nM | CC50 (cancer cell lines; Homo sapiens, DMS-114, 72 h, DMS-114 (SCLC), 3 DAY, read-out: TC50 (the source's name)): 0.16 nM | CC50 (cancer cell lines; Homo sapiens, DU-145, 72 h, DU145 (prostate), 3 DAY, read-out: TC50 (the source's name)): 3.9 nM | CC50 (cancer cell lines; Homo sapiens, DU-145, 72 h, DU145 cells (prostate), 3 day, read-out: Cmpd A 3 day TC50): 3.9 nM | CC50 (cancer cell lines; Homo sapiens, DU-145, 168 h, DU145 (prostate), 7 DAY, read-out: TC50 (the source's name)): 2.7 nM | CC50 (cancer cell lines; Homo sapiens, DU-145, 168 h, DU145 cells (prostate), 7 day, read-out: Cmpd A 7 day TC50): 3 nM | CC50 (cancer cell lines; Homo sapiens, DU-4475, 72 h, DU4475 (breast), 3 DAY, read-out: TC50 (the source's name)): 0.1 nM | CC50 (cancer cell lines; Homo sapiens, DU-4475, 72 h, DU4475 cells (breast), 3 day, read-out: Cmpd A 3 day TC50): 0.1 nM | CC50 (cancer cell lines; Homo sapiens, DU-4475, 168 h, DU4475 (breast), 7 DAY, read-out: TC50 (the source's name)): 0.1 nM | CC50 (cancer cell lines; Homo sapiens, DU-4475, 168 h, DU4475 cells (breast), 7 day, read-out: Cmpd A 7 day TC50): 0.1 nM | CC50 (cancer cell lines; Homo sapiens, Daudi, 72 h, Daudi cells (lymphoma), 3 day, read-out: Cmpd A 3 day TC50): 1.4 nM | CC50 (cancer cell lines; Homo sapiens, EKVX, 72 h, EKVX cells (lung (NSCLC)), 3 day, read-out: Cmpd A 3 day TC50): 4 nM | CC50 (cancer cell lines; Homo sapiens, EKVX, 168 h, EKVX cells (lung (NSCLC)), 7 day, read-out: Cmpd A 7 day TC50): 1 nM | CC50 (cancer cell lines; Homo sapiens, H9, 72 h, H9 cells (lymphoma), 3 day, read-out: Cmpd A 3 day TC50): 3.2 nM | CC50 (cancer cell lines; Homo sapiens, HCC827, 72 h, HCC827 (NSCLC), 3 DAY, read-out: TC50 (the source's name)): 8 nM | CC50 (cancer cell lines; Homo sapiens, HCC827, 72 h, HCC827 cells (lung (NSCLC)), 3 day, read-out: Cmpd A 3 day TC50): 8 nM | CC50 (cancer cell lines; Homo sapiens, HCC827, 168 h, HCC827 (NSCLC), 7 DAY, read-out: TC50 (the source's name)): 1.5 nM | CC50 (cancer cell lines; Homo sapiens, HCC827, 168 h, HCC827 cells (lung (NSCLC)), 7 day, read-out: Cmpd A 7 day TC50): 1.5 nM | CC50 (cancer cell lines; Homo sapiens, HCC1937, 72 h, HCC1937 cells (breast), 3 day, read-out: Cmpd A 3 day TC50): 61 nM | CC50 (cancer cell lines; Homo sapiens, HCC1937, 168 h, HCC1937 cells (breast), 7 day, read-out: Cmpd A 7 day TC50): 1.5 nM | CC50 (cancer cell lines; Homo sapiens, HCT-15, 72 h, HCT-15 (colon), 3 DAY, read-out: TC50 (the source's name)): 0.7 nM | CC50 (cancer cell lines; Homo sapiens, HCT-15, 168 h, HCT-15 (colon), 7 DAY, read-out: TC50 (the source's name)): 1 nM | CC50 (cancer cell lines; Homo sapiens, HCT-15, 168 h, HCT-15 cells (colon), 7 day, read-out: Cmpd A 7 day TC50): 1 nM | CC50 (cancer cell lines; Homo sapiens, HCT-116, 72 h, HCT116 (colon), 3 DAY, read-out: TC50 (the source's name)): 0.6 nM | CC50 (cancer cell lines; Homo sapiens, HCT-116, 72 h, HCT-116 cells (colon), 3 day, read-out: Cmpd A 3 day TC50): 0.2 to 4.4 nM | CC50 (cancer cell lines; Homo sapiens, HCT-116, 168 h, HCT116 (colon), 7 DAY, read-out: TC50 (the source's name)): 0.4 nM | CC50 (cancer cell lines; Homo sapiens, HCT-116, 168 h, HCT-116 cells (colon), 7 day, read-out: Cmpd A 7 day TC50): 0.4 nM | CC50 (cancer cell lines; Homo sapiens, HL-60, 72 h, HL-60 cells (myelogenous leukemia), 3 day, read-out: Cmpd A 3 day TC50): 5.3 nM | CC50 (cancer cell lines; Homo sapiens, HOP-62, 72 h, HOP62 cells (lung (NSCLC)), 3 day, read-out: Cmpd A 3 day TC50): 4 nM | CC50 (cancer cell lines; Homo sapiens, HOP-92, 72 h, HOP92 (NSCLC), 3 DAY, read-out: TC50 (the source's name)): 17 nM | CC50 (cancer cell lines; Homo sapiens, HOP-92, 72 h, HOP92 cells (lung (NSCLC)), 3 day, read-out: Cmpd A 3 day TC50): 17 nM | CC50 (cancer cell lines; Homo sapiens, HOP-92, 168 h, HOP92 (NSCLC), 7 DAY, read-out: TC50 (the source's name)): 4.3 nM | CC50 (cancer cell lines; Homo sapiens, HOP-92, 168 h, HOP92 cells (lung (NSCLC)), 7 day, read-out: Cmpd A 7 day TC50): 4.3 nM | CC50 (cancer cell lines; Homo sapiens, HOS, 72 h, HOS cells (osteosarcoma), 3 day, read-out: Cmpd A 3 day TC50): < 0.8 nM | CC50 (cancer cell lines; Homo sapiens, HT-29, 72 h, HT29 (colon), 3 DAY, read-out: TC50 (the source's name)): 1.4 nM | CC50 (cancer cell lines; Homo sapiens, HT-29, 72 h, HT29 cells (colon), 3 day, read-out: Cmpd A 3 day TC50): 1.4 nM | CC50 (cancer cell lines; Homo sapiens, HT-29, 168 h, HT29 (colon), 7 DAY, read-out: TC50 (the source's name)): 1.1 nM | CC50 (cancer cell lines; Homo sapiens, HT-29, 168 h, HT29 cells (colon), 7 day, read-out: Cmpd A 7 day TC50): 1.1 nM | CC50 (cancer cell lines; Homo sapiens, HT-1080, 72 h, HT1080 (sarcoma), 3 DAY, read-out: TC50 (the source's name)): 1 nM | CC50 (cancer cell lines; Homo sapiens, HT-1080, 72 h, HT1080 cells (fibrosarcoma), 3 day, read-out: Cmpd A 3 day TC50): 1 nM | CC50 (cancer cell lines; Homo sapiens, HT-1080, 168 h, HT1080 (sarcoma), 7 DAY, read-out: TC50 (the source's name)): 0.6 nM | CC50 (cancer cell lines; Homo sapiens, HT-1080, 168 h, HT1080 cells (fibrosarcoma), 7 day, read-out: Cmpd A 7 day TC50): 0.6 nM | CC50 (cancer cell lines; Homo sapiens, IGROV-1, 72 h, IGR-OV1 cells (ovary), 3 day, read-out: Cmpd A 3 day TC50): 2 nM | CC50 (cancer cell lines; Homo sapiens, JJN-3, 72 h, JJN3 cells (myeloma (plasma cell leukemia)), 3 day, read-out: Cmpd A 3 day TC50): 0.9 nM | CC50 (cancer cell lines; Homo sapiens, K562, 72 h, K562 cells (myelogenous leukemia), 3 day, read-out: Cmpd A 3 day TC50): 5.7 nM | CC50 (cancer cell lines; Homo sapiens, KARPAS-299, 72 h, KARPAS-299 cells (lymphocytic leukemia), 3 day, read-out: Cmpd A 3 day TC50): 20 nM | CC50 (cancer cell lines; Homo sapiens, KINGS-1, 72 h, KINGS-1 cells (brain, anaplastic astrocytoma (glioma)), 3 day, read-out: Cmpd A 3 day TC50): 2 nM | CC50 (cancer cell lines; Homo sapiens, KM12, 72 h, KM12 (colon), 3 DAY, read-out: TC50 (the source's name)): 0.9 nM | CC50 (cancer cell lines; Homo sapiens, KM12, 72 h, KM12 cells (colon), 3 day, read-out: Cmpd A 3 day TC50): 0.9 nM | CC50 (cancer cell lines; Homo sapiens, KM12, 168 h, KM12 (colon), 7 DAY, read-out: TC50 (the source's name)): 0.4 nM | CC50 (cancer cell lines; Homo sapiens, KM12, 168 h, KM12 cells (colon), 7 day, read-out: Cmpd A 7 day TC50): 0.4 nM | CC50 (cancer cell lines; Homo sapiens, LOX IMVI, 72 h, LOX-IMVI cells (melanoma), 3 day, read-out: Cmpd A 3 day TC50): 15 nM | CC50 (cancer cell lines; Homo sapiens, MCF7, 72 h, MCF7 cells (breast), 3 day, read-out: Cmpd A 3 day TC50): 2.2 nM | CC50 (cancer cell lines; Homo sapiens, MDA-MB-231, 72 h, MDA-MB-231 (breast), 3 DAY, read-out: TC50 (the source's name)): 10 nM | CC50 (cancer cell lines; Homo sapiens, MDA-MB-231, 168 h, MDA-MB-231 (breast), 7 DAY, read-out: TC50 (the source's name)): 7.5 nM
